Results from PMC9101728, “Isolation and HPLC Quantitative Determination of 5α-Reductase Inhibitors from Tectona grandis L.f. Leaf Extract” (Molecules, 2022).
Where “and” joins values, the source holds several entries; their conditions need not be identical. Equal values may be shown once. Read-outs that look alike come from different tables or passages of the source.

Columns and labels:
5α-reductase [1] = molecular target: T1, 5α-reductase (Homo sapiens, UniProt P18405); assay: Enzymatic 5α-reductase inhibition assay (conversion of testosterone to DHT, LC-MS), crude enzyme from LNCaP cells; type: biochemical; design: adding 80 µL of homogenized crude enzyme (equivalent to 75 µg protein); host or cells: LNCaP cells, sonicated homogenate used as crude enzyme; conditions: for IC50: isolated compounds, LNCaP cell crude enzyme, mean ± SD of triplicate, read-out: IC50 against 5α-reductase (converted); for 5α-reductase inhibitory activity (in words): qualitative statement
T1 sequence (P18405 1-259): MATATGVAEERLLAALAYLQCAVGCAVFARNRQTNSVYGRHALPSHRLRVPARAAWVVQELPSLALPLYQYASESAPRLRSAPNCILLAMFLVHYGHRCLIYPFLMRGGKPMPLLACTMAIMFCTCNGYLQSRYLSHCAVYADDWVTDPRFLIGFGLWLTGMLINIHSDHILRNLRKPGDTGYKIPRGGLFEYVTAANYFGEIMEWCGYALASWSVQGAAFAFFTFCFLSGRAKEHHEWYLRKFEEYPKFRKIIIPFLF
Protocol: The steroid 5α-reductase inhibitory activity of samples on the conversion of testosterone to DHT was determined using LNCaP cell as a source of enzyme.
5α-reductase was prepared as a crude enzyme from the androgen-dependent LNCaP cells (ATCC® CRL-1740^TM) using the procedure as described by Fachrunniza et al., which was modified from Srivilai et al.. Briefly, the LNCaP cells were cultured in a 175 cm^2 culture flask at 37 °C under a 5% CO2 humidified atmosphere and cultured until reaching approximately 80% confluency. The medium was removed and the cells were rinsed with tris-HCl buffer solution, pH 7.4 (containing 10 mM Tris-HCl buffer; 50 mM KCl; 1 mM EDTA; 0.5 mM phenylmethanesulfonyl fluoride). The cells were then scraped off and centrifuged at 1900× g for 10 min. The cell pellets were collected and re-suspended in tris-HCl buffer solution pH 7.4 to a concentration of ≥9 × 10^7 cells/mL and the resultant cell pellets were kept in an ice bath and homogenized using a sonication probe. The total protein content in the homogenized crude enzyme was not less than 75 µg protein equivalent in this 5α-reductase inhibitory assay, which was measured using the Pierce bicinchoninic acid (BCA) protein assay (Pierce, Rockford, IL, USA).
The in vitro inhibitory activity of the samples against the conversion of testosterone to DHT by 5α-reductase was carried out according to the method described by Srivilai et al.. The DHT formation after the enzymatic reaction was determined using liquid chromatography mass spectrometry (LC-MS) to measure 5α-reductase activity. […] In the assay, the reaction was performed in U-shaped 96-deep-well plates covered by well-cap mats to create a solution that contained 10 µL of the tested sample dissolved in dimethyl sulfoxide (DMSO), 20 µL of testosterone (34.7 µM in propylene glycol and water), and 50 µL of β-nicotinamide adenine dinucleotide phosphate (NADPH, 1 mM in tris-HCl buffer pH 7.4). The enzymatic reaction was started by adding 80 µL of homogenized crude enzyme (equivalent to 75 µg protein), and the final volume was adjusted to 200 µL by adding 40 µL of tris-HCl buffer pH 7.4. The reaction was maintained in a water bath with a shaker at 37 °C for 60 min and then the reaction was stopped by adding 300 µL of hydroxylamine hydrochloride (HM) (10 mg/mL in 80% v/v ethanol). The solution was then incubated for another 60 min at 60 °C to completely derivatize all the DHT that was produced. After incubation, the solution was centrifuged at 1700× g for 10 min and the supernatant was collected for quantitated DHT production by LC-MS. Two control groups, C0 and C60, were prepared with all the solutions, including 10 µL of DMSO, but no test sample. Control group C0 was stopped (by adding HM) before the enzymatic incubation at 0 min, while the control group C60 continued with the enzymatic reaction and was stopped after 60 min of incubation. The DHT production was determined using LC-MS. The inhibition of tested sample was determined by measuring the area under the curve (AUC) of extracted ion chromatogram (EIC) of derivatized-DHT (m/z [M + H]^+, 306.2428) which was used to calculate the enzymatic reaction inhibition by the following Equation (1):(1) 5α-reductase inhibitory activity (%)= [1 −AUC of sample−AUC of C0/AUC of C60 −AUC of C0] ×100

5α-reductase [2] = molecular target: T1, 5α-reductase; conditions: read-out: IC50 against 5α-reductase; positive controls; same assay system; cited from earlier work

Row | IC50 (5α-reductase [1]) | 5α-reductase inhibitory activity (in words) (5α-reductase [1]) | Compound | IC50 (5α-reductase [2])
1 | 14.6 µM | potent 5α-reductase inhibitory activity | CC1=CC[C@H]2C(C)(C)CCC[C@]2(C)[C@H]1CC/C(C)=C/C(=O)O [Compound 2, (+)-eperua-7,13-dien-15-oic acid] | –
2 | – | – | CC(C)(C)NC(=O)[C@H]1CC[C@H]2[C@@H]3CC[C@H]4NC(=O)C=C[C@]4(C)[C@H]3CC[C@]12C [Finasteride] | 0.752 µM and 0.73 µM
3 | > 400 µM | weak inhibitory activity | C=C(C)[C@@H]1CC[C@]2(C)CC[C@]3(C)[C@H](CC[C@@H]4[C@@]5(C)CC[C@H](O)C(C)(C)[C@@H]5CC[C@]43C)[C@@H]12 [Compound 3, lupeol] | –
4 | 14.2 µM | potent 5α-reductase inhibitory activity | CC1=C(CC/C(C)=C/C(=O)O)[C@@]2(C)CCCC(C)(C)[C@@H]2CC1 [Compound 1, (+)-eperua-8,13-dien-15-oic acid] | –
